Experimental data taken from ChEMBL document CHEMBL1127451, “Benzoselenazolinone derivatives designed to be glutathione peroxidase mimetics feature inhibition of cyclooxygenase/5-lipoxygenase pathways and anti-inflammatory activity” (1994).

Columns and labels:
[1] = In vitro glutathione peroxidase activity at 2*10e-7M using tert-butyl hydroperoxide, activity given in percentage of ebselen''s activity; assay type: functional
[2] = Inhibition of spontaneous lipid peroxidation at 10e-5 M in rat brain homogenate
[3] = In vitro glutathione peroxidase activity at 2*10e-7M using hydrogen peroxide, activity given in percentage of ebselen''s activity; assay type: functional
[4] = Inhibition of [Fe(2+)]/ascorbate-induced lipid peroxidation at 10e-5 M in rat brain homogenate

Cc1c(C)c2c(c(C)c1O)CCC(C)(C(=O)O)O2 (centres undefined)
GSH-Px activity [1]: 0

CC(=O)c1ccc2[nH]c(=O)[se]c2c1
inhibition [2]: 1%
GSH-Px activity [3]: 0
GSH-Px activity [1]: 12
inhibition [4]: 6%

CN(C)C(=O)Nc1ccc(C(=O)c2ccccc2)cc1[Se][Se]c1cc(C(=O)c2ccccc2)ccc1NC(=O)N(C)C
inhibition [2]: 98%
GSH-Px activity [3]: 212
GSH-Px activity [1]: 212
inhibition [4]: 99%

O=C(c1cccnc1)c1ccc2[nH]c(=O)[se]c2c1
inhibition [2]: -5%
GSH-Px activity [3]: 0
GSH-Px activity [1]: 0
inhibition [4]: -8%

Cn1c(=O)[se]c2cc(C(=O)c3ccccc3)ccc21
inhibition [2]: -1%
GSH-Px activity [3]: 0
GSH-Px activity [1]: 0
inhibition [4]: -3%

Nc1ccc(C(O)c2ccccc2)cc1[Se][Se]c1cc(C(O)c2ccccc2)ccc1N (centres undefined)
inhibition [2]: 92%
GSH-Px activity [3]: 54
GSH-Px activity [1]: 245
inhibition [4]: 97%

CN(C)C(=O)Nc1ccccc1[Se][Se]c1ccccc1NC(=O)N(C)C
inhibition [2]: 96%
GSH-Px activity [3]: 236
GSH-Px activity [1]: 178
inhibition [4]: 97%

CC(C)(Sc1cc(C(C)(C)C)c(O)c(C(C)(C)C)c1)Sc1cc(C(C)(C)C)c(O)c(C(C)(C)C)c1
GSH-Px activity [1]: 0

Cn1c(=O)[se]c2cc(C(=O)c3cccnc3)ccc21
inhibition [2]: 4%
GSH-Px activity [3]: 0
GSH-Px activity [1]: 0
inhibition [4]: 1%

CCCC(=O)c1ccc2c(c1)[se]c(=O)n2C
inhibition [2]: 2%
GSH-Px activity [3]: 0
GSH-Px activity [1]: 0
inhibition [4]: -3%

CCCC(=O)c1ccc2[nH]c(=O)[se]c2c1
inhibition [2]: -3%
GSH-Px activity [3]: 0
GSH-Px activity [1]: 0
inhibition [4]: -2%

O=C(c1ccc(Cl)cc1)c1ccc2[nH]c(=O)[se]c2c1
inhibition [2]: -5%
GSH-Px activity [3]: 0
GSH-Px activity [1]: 0
inhibition [4]: 5%

O=c1[nH]c2ccc(C(O)c3ccccc3)cc2[se]1 (centres undefined)
inhibition [2]: -1%
GSH-Px activity [3]: 0
GSH-Px activity [1]: 10
inhibition [4]: -1%

Nc1ccc(Cc2ccccc2)cc1[Se][Se]c1cc(Cc2ccccc2)ccc1N
inhibition [2]: 91%
GSH-Px activity [3]: 227
GSH-Px activity [1]: 242
inhibition [4]: 97%

CNc1ccc(C(=O)c2ccccc2)cc1[Se][Se]c1cc(C(=O)c2ccccc2)ccc1NC
inhibition [2]: 100%
GSH-Px activity [3]: 68
GSH-Px activity [1]: 298
inhibition [4]: 100%

Cn1c(=O)[se]c2cc(C(=O)c3ccc(Cl)cc3)ccc21
inhibition [2]: -3%
GSH-Px activity [3]: 0
GSH-Px activity [1]: 0
inhibition [4]: 2%

Nc1ccc(C(=O)c2ccc(Cl)cc2)cc1[Se][Se]c1cc(C(=O)c2ccc(Cl)cc2)ccc1N
inhibition [2]: 100%
GSH-Px activity [3]: 116
GSH-Px activity [1]: 279
inhibition [4]: 100%

O=c1[nH]c2ccc(Cc3ccccc3)cc2[se]1
inhibition [2]: -6%
GSH-Px activity [3]: 0.7
GSH-Px activity [1]: -1
inhibition [4]: -7%

CNc1ccccc1[Se][Se]c1ccccc1NC
inhibition [2]: 52%
GSH-Px activity [3]: 325
GSH-Px activity [1]: 267
inhibition [4]: 37%

CC(=O)c1ccc(N)c([Se][Se]c2cc(C(C)=O)ccc2N)c1
inhibition [2]: 100%
GSH-Px activity [3]: 247
GSH-Px activity [1]: 238
inhibition [4]: 99%
